Experimental data published in publication PMC12472512, “Design, Synthesis, In Silico Docking, Multitarget Bioevaluation and Molecular Dynamic Simulation of Novel Pyrazolo[3,4-d]Pyrimidinone Derivatives as Potential In Vitro and In Vivo Anti-Inflammatory Agents” (Pharmaceuticals, 2025).
Values joined by “and” are separate entries in the source; they are usually repeats but may differ in a detail not shown here. Equal entries are not always repeated. “Also recorded” adds a separate entry of the source.

Assays:
IL-6 = experiment: ELISA of serum IL-6 in carrageenan-treated mice; type: in vivo; settings: 50 mg/kg; carrageenan-treated mice at 3 h
Method: Therefore, the anti-inflammatory activity of the tested compounds may hinge on their ability to suppress the pro-inflammatory TNF-α and IL-6 levels.
All mice were sacrificed under anesthesia using ketamine/xylazine (50/15 mg/kg). Blood was collected for the ELISA assays to determine the levels of cytokines TNF-α and IL-6 using the Rat IL6 (Interleukin 6) ELISA Kit and Rat TNFα ELISA Kit (MyBioSource, San Diego, CA, USA), in accordance with the manufacturer’s instructions. The quantitative sandwich enzyme immunoassay technique is the fundamental principle of the TNF-α assay. A microplate was pre-coated with an antibody specific for TNF-α. Standards and samples were pipetted into the wells, and the immobilized antibody bound to any TNF-α that was present. A biotin-conjugated antibody that was specific for TNF-α was introduced to the wells after any unbound substances were removed. Horseradish peroxidase (HRP) conjugated with avidin was introduced to the wells subsequent to the cleaning process. After a wash to eliminate any unbound avidin–enzyme reagent, a substrate solution was introduced to the wells, and the color developed in proportion to the quantity of TNF-α bound in the initial step. The color development was halted, and the color intensity was quantified. Additionally, the Sandwich enzyme immunoassay is the test principle utilized for IL-6. The microtiter plates included in this preparation were pre-coated with an antibody that was specific to Rat IL6. A biotin-conjugated antibody specific to Rat IL6 was then added to the appropriate microtiter plate wells along with standards or samples. Subsequently, each microplate well was incubated with avidin conjugated to horseradish peroxidase (HRP). […] The addition of sulfuric acid solution terminated the enzyme–substrate reaction, and the color change was observed spectrophotometrically at a wavelength of 450 nm ± 10 nm. The concentration of Rat IL6 in the samples was subsequently determined by comparing the OD of the samples to the standard curve. […]

TNF-α = experiment: ELISA of serum TNF-α in carrageenan-treated mice; type: in vivo; settings: 50 mg/kg; carrageenan-treated mice at 3 h; compared to the control group
Method: To evaluate the anti-inflammatory mechanisms of these compounds, two key chemical mediators, TNF-α and IL-6, were assessed using enzyme-linked immunosorbent assay (ELISA).
All mice were sacrificed under anesthesia using ketamine/xylazine (50/15 mg/kg). Blood was collected for the ELISA assays to determine the levels of cytokines TNF-α and IL-6 using the Rat IL6 (Interleukin 6) ELISA Kit and Rat TNFα ELISA Kit (MyBioSource, San Diego, CA, USA), in accordance with the manufacturer’s instructions. The quantitative sandwich enzyme immunoassay technique is the fundamental principle of the TNF-α assay. A microplate was pre-coated with an antibody specific for TNF-α. Standards and samples were pipetted into the wells, and the immobilized antibody bound to any TNF-α that was present. A biotin-conjugated antibody that was specific for TNF-α was introduced to the wells after any unbound substances were removed. Horseradish peroxidase (HRP) conjugated with avidin was introduced to the wells subsequent to the cleaning process. After a wash to eliminate any unbound avidin–enzyme reagent, a substrate solution was introduced to the wells, and the color developed in proportion to the quantity of TNF-α bound in the initial step. The color development was halted, and the color intensity was quantified. Additionally, the Sandwich enzyme immunoassay is the test principle utilized for IL-6. The microtiter plates included in this preparation were pre-coated with an antibody that was specific to Rat IL6. A biotin-conjugated antibody specific to Rat IL6 was then added to the appropriate microtiter plate wells along with standards or samples. Subsequently, each microplate well was incubated with avidin conjugated to horseradish peroxidase (HRP). […] The addition of sulfuric acid solution terminated the enzyme–substrate reaction, and the color change was observed spectrophotometrically at a wavelength of 450 nm ± 10 nm. The concentration of Rat IL6 in the samples was subsequently determined by comparing the OD of the samples to the standard curve.
Blood was collected immediately following the decapitation of mice, performed in accordance with the institutional animal care and use committee (IACUC) guidelines. After decapitation, whole blood was allowed to flow freely and was collected directly into EDTA and heparinized tubes. The whole blood was centrifuged at 3000× g for 10 min at 4 °C, and the plasma was carefully collected and stored at –80 °C until further analysis.

[1] = system: carrageenan-induced paw edema; experiment: In vivo carrageenan-induced paw edema; settings: 50 mg/kg oral, mice
human recombinant COX-2 = target: T1, human recombinant COX-2 (Homo sapiens, UniProt P35354); experiment: In vitro COX-2 inhibition, fluorescent inhibitor screening assay kit
T1 sequence (P35354 18-604): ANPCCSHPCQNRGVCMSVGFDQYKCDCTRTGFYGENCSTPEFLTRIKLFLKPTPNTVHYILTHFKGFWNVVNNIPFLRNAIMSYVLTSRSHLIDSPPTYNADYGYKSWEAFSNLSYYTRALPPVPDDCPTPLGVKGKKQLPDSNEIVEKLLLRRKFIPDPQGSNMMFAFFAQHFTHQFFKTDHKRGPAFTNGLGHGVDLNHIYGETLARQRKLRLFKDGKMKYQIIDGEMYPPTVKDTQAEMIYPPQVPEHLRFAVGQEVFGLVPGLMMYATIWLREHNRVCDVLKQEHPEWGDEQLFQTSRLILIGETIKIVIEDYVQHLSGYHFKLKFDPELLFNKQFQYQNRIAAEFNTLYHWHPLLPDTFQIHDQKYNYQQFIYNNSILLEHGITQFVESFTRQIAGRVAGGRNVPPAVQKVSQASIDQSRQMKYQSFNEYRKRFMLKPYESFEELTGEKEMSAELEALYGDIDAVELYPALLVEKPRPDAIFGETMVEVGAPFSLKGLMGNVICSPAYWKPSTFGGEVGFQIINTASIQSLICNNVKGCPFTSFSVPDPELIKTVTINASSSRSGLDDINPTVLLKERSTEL
Method: (§1) Test compounds, dissolved in DMSO, and were pre-incubated with the enzymes at 37 °C for 5 min before initiating the reaction with 1 mM arachidonic acid under light-protected conditions. The fluorescence was measured using a multi-well spectrophotometer (fluorescence plate reader). […] The percentage inhibition was calculated by comparing the absorbance values of the compounds to the vehicle control.
(§2) This protocol utilizes a colorimetric assay to measure the peroxidase activity of Prostaglandin G/H
(§3) Synthase (COX enzyme). The COX enzyme converts Arachidonic Acid (AA) to Prostaglandin G2
(§4) (PGG2), which is then reduced to Prostaglandin H2 (PGH2) by the inherent peroxidase activity.
(§5) peroxidase reaction co-oxidizes a chromogen, such as N,N,N',N'-Tetramethyl-p-phenylenediamine
(§6) (TMPD), resulting in a colored product that can be measured spectrophotometrically at 590-630 nm.
(§7) inhibition of COX enzyme by a test compound reduces the formation of this colored product, allowing
(§8) for the calculation of percentage inhibition and subsequent IC50 values.
(§9) o Ovine COX-1 (purified, commercially available)
(§10) • Substrate: Arachidonic Acid (AA). Prepare a stock solution in ethanol. Note: AA is unstable;
(§11) aliquot and store under inert gas (e.g., Argon) at -80°C.
(§12) • Cofactor: Hemin. Prepare a stock solution in DMSO.
(§13) • Chromogen: N,N,N',N'-Tetramethyl-p-phenylenediamine (TMPD) dihydrochloride.
(§14) • Assay Buffer: 100 mM Tris-HCl buffer, pH 8.0. May contain 1-5 mM EDTA and 1-2 µM
Phenol (acts as a cofactor for COX-2).
(§15) • Solvents: Dimethyl Sulfoxide (DMSO), Ethanol (absolute).
(§16) consistent across all wells (typically ≤1% final concentration).
o Keep all dilutions on ice.
(§17) o COX-1 Working Solution: Dilute ovine COX-1 in ice-cold assay buffer to a final
(§18) concentration of ~50-100 U/mL. Add Hemin to a final concentration of 1 µM.
(§19) o Note: The exact enzyme units (U) required must be determined by a preliminary activity
(§20) test to ensure the reaction is linear and within the dynamic range of the assay.
(§21) Substrate/Chromogen Solution (Prepare Fresh):
(§22) o To a tube containing assay buffer, add TMPD to a final concentration of 0.2-0.5 mM.
(§23) o Add Arachidonic Acid to a final concentration of 100 µM. Vortex gently.
(§24) o Keep this solution protected from light and on ice until use.
(§25) Assay Setup (Performed in duplicate or triplicate)

gastric mucosa = experiment: Histopathological examination of stomach sections (H&E)
COX-1 = target: T2, COX-1 (Ovis aries, UniProt P05979); experiment: In vitro COX-1 inhibition, fluorescent inhibitor screening assay kit
T2 sequence (P05979 25-600): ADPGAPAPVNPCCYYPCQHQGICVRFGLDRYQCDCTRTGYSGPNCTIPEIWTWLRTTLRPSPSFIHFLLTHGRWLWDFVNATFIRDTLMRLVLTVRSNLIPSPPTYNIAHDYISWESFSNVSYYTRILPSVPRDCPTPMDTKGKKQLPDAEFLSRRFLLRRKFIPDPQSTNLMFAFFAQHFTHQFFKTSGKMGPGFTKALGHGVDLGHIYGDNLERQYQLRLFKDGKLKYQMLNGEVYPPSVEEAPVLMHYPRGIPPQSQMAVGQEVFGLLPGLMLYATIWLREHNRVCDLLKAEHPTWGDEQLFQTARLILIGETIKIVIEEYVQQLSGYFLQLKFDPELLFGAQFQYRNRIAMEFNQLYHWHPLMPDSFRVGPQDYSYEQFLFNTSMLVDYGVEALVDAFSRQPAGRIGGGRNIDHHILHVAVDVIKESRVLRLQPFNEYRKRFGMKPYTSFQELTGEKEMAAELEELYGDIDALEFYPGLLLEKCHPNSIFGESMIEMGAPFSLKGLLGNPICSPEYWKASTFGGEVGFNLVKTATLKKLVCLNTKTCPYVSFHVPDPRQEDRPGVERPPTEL
Method: as §1, §2, §3, §4, §5, §6, §7, §8, §9, §10, §11, §12, §13, §14
Phenol (acts as a cofactor for COX-2).
as §15, §16
o Keep all dilutions on ice.
as §17, §18, §19, §20, §21, §22, §23, §24, §25

COX-2 = system: COX-2; set-up: method as in PMID 19479756; settings: cited from earlier work

O=C(Cn1cnc2c(cnn2-c2ccccc2)c1=O)N(c1ccccc1)c1ccccc1 [Compound 5k, 2-(4-Oxo-1-Phenyl-1,4-Dihydro-5H-Pyrazolo[3,4-d]Pyrimidin-5-yl)-N, N-Diphenyl Acetamide]
IL-6 levels in serum (IL-6): significantly reduced
TNF-α levels in serum (TNF-α): significantly reduced
Percentage of inhibition of carrageenan-induced paw edema ([1]; 1 h): 31.46%
Percentage of inhibition of carrageenan-induced paw edema ([1]; 2 h): 44.88%
Percentage of inhibition of carrageenan-induced paw edema ([1]; 3 h, 50 mg/kg): 54.89%
IC50 (human recombinant COX-2): 0.266 ± 0.009 µM
SI, in vitro COX-2 selectivity index (COX-1 IC50/COX-2 IC50) (human recombinant COX-2): 95.8 and 95.75
COX2 %inh (human recombinant COX-2; conc 0.01 (uM)): -394%
COX2 %inh (human recombinant COX-2; conc 0.1 (uM)): -266%
COX2 %inh (human recombinant COX-2; conc 1 (uM)): -76%
COX2 %inh (human recombinant COX-2; conc 10 (uM)): 14.6%
COX2 %inh (human recombinant COX-2; conc 100 (uM)): 67.8%
histological structure of the gastric mucosa (gastric mucosa; stomach sections stained with H&E, 50 mg/kg): preserved gastric tissue integrity; also recorded: intact gastric tissue; also recorded: normal histological structure of the gastric mucosa
IC50 (COX-1): 25.5 ± 0.86 µM
COX1 %inh (COX-1; conc 0.01 (uM)): 0.72%
COX1 %inh (COX-1; conc 0.1 (uM)): 5.18%
COX1 %inh (COX-1; conc 1 (uM)): 15%
COX1 %inh (COX-1; conc 10 (uM)): 31.4%
COX1 %inh (COX-1; conc 100 (uM)): 74.9%

CC(=NO)c1ccc(NC(=O)Cn2cnc3c(cnn3-c3ccccc3)c2=O)cc1 [Compound 5m, N-(4-(1-(Hydroxyimino)Ethyl)Phenyl)-2-(4-Oxo-1-Phenyl-1,4-Dihydro-5H-Pyrazolo[3,4-d]Pyrimidin-5-yl) Acetamide]
IL-6 levels in serum (IL-6): significantly reduced
TNF-α levels in serum (TNF-α): significantly reduced
Percentage of inhibition of carrageenan-induced paw edema ([1]; 1 h): 3.43%
Percentage of inhibition of carrageenan-induced paw edema ([1]; 2 h, 50 mg/kg): 58.01%
Percentage of inhibition of carrageenan-induced paw edema ([1]; 3 h): 39.85%
IC50 (human recombinant COX-2): 2.34 ± 0.08 µM
SI, in vitro COX-2 selectivity index (COX-1 IC50/COX-2 IC50) (human recombinant COX-2): 24.47
COX2 %inh (human recombinant COX-2; conc 0.1 (uM)): -448%
COX2 %inh (human recombinant COX-2; conc 1 (uM)): -273%
COX2 %inh (human recombinant COX-2; conc 10 (uM)): -103%
COX2 %inh (human recombinant COX-2; conc 100 (uM)): 46.6%
histological structure of the gastric mucosa (gastric mucosa; stomach sections stained with H&E; 50 mg/kg): normal histological structure of the gastric mucosa
IC50 (COX-1): 57.3 ± 1.93 µM
COX1 %inh (COX-1; conc 0.01 (uM)): 0.27%
COX1 %inh (COX-1; conc 0.1 (uM)): 6.51%
COX1 %inh (COX-1; conc 1 (uM)): 12.3%
COX1 %inh (COX-1; conc 10 (uM)): 24.6%
COX1 %inh (COX-1; conc 100 (uM)): 69.2%

O=C(Nn1cnc2c(cnn2-c2ccccc2)c1=O)c1ccccc1 [Compound I]
IC50 (COX-2): 78.9 µM

O=C(NCc1ccccc1)c1nc2c(cnn2-c2ccccc2)c(=O)[nH]1 [II]
IC50 (COX-2): 23.8 µM
